The test system of data set [1] is DK66 (DNA, duplex) CGCGAATTCGCG
As to the kind of experiment: native ESI-MS. Particulars: 100 mM ammonium acetate (NH4+), no K+, apparent, 10 μM DNA, 20 μM ligand, 4 °C incubation.

For data set [2], the system named is G4T4G4 (DNA, G4) GGGGTTTTGGGG
The data set is described as follows: native ESI-MS. Particulars: 100 mM ammonium acetate (NH4+), no K+; apparent, site 1 of 2; 10 μM DNA, 20 μM ligand, 4 °C incubation.

For the next data set, the system named is TG4T (DNA, G4) TGGGGT. The data set is described as follows: native ESI-MS. Particulars: 100 mM ammonium acetate (NH4+), no K+; apparent, site 1 of 2; 10 μM DNA, 20 μM ligand, 4 °C incubation.
In data set [3] the target is G4T4G4 DNA G4 (antiparallel). The data set is described as follows: Native ESI-MS, G4T4G4. It is filed as binding. Particulars: 10 μM DNA, 20 μM ligand, 100 mM ammonium acetate. The protocol:
Oligonucleotides were purchased lyophilized and RP-cartridge purified from Eurogentec (Kanaka Eurogentec, Seraing, Belgium), then buffer exchanged with ammonium acetate (5 M; Sigma-Aldrich, Saint-Quentin-Fallavier, France) using Amicon Ultra (3 K cut-off; Merck Millipore, Cork, Ireland). The concentrations of the initial stock solutions of DNA/RNA (∼1 mM) were measured by UV absorbance at 260 nm. Sample solutions were prepared by diluting the appropriate volume of oligonucleotide stock solutions to reach 10 μM of DNA/RNA and 20 μM of ligand, in 100 mM ammonium acetate. The solutions were incubated for 16 h at 4 °C before analysis by mass spectrometry. […] These parameters ensured a good signal intensity without disrupting noncovalent complexes, which was verified using d[G4T4G4]2 as a control. The presented spectra of all DNA/RNA used in this work (Fig. 5, S9 and S10) result from 8 min accumulations. The abundance of each species, M, M + 1L, M + 2L and M + 3L complexes, where M is a monomer oligonucleotide and L is a ligand, was determined from their peak area signals (A), from the sum of the −4, −5 and −6 charge states for DNA and from the sum of the −5, −6 and −7 charge states for RNA, assuming that their response factors are equal. The molar concentrations were then calculated knowing the total amount of oligonucleotide [M]tot: [drawing 1] [drawing 2] [drawing 3] [drawing 4] The concentration of the free ligand, [L]free, was determined from its total concentration [L]tot:[L]free = [L]tot − [M + 1L] − 2[M + 2L] − 3[M + 3L]Apparent consecutive dissociation constants (Kd1, Kd2 and Kd3) were calculated by using the following equations: [drawing 5] [drawing 6] [drawing 7]
We further analysed the formation of the DBA/G4 complexes by native electrospray ionization mass spectrometry (ESI-MS). We initially attempted to analyze DBA binding to the primary G4 targets from HIV-1 (HIVpro1, HIVpro2, LTR4 and rLTR4 RNA). […] These sequences span the major G4 topological classes and provide a representative assessment of DBA binding across diverse G4 architectures. We also included two DNA duplex controls (DK100 and DK66) to evaluate binding selectivity. This ESI-MS approach enables direct determination of binding stoichiometry, quantification of each species in solution, and calculation of dissociation constants (Kd) from the relative abundances of free and bound forms.[88,97]
In the ESI-MS conditions, the rLTR4 G4 (10 μM) forms a dimeric structure. […] Among the six DNA and RNA tested here (Fig. 5B, S9 and S10) only rLTR4 presented 1 : 3 G4/DBA complexes. In all cases but one, the 1 : 1 stoichiometry represents the major species in solution while for rLTR4 it is the 1 : 2 (green). […] For TG4T tetramolecular G4 or G4T4G4 bimolecular G4 only 1 : 1 and 1 : 2 complexes were detected (Fig. S9A and S10A). […] The weakest binding was obtained for the G4T4G4 antiparallel G4 and Htel sequence with Kd1s ranging from 11 μM for to 500 μM (Table 2).

Data set [4] deals with HIVpro1-FT (anti-parallel DNA G4). As to the kind of experiment: FRET melting assay, HIVpro1-FT. Particulars: ligand 1 μM, DNA 0.2 μM. It is filed as binding, HIV-1. The method, then:
(§1) Doubly labelled oligonucleotides with fluorescein and TAMRA were purchased lyophilized and RP-cartridge purified from Eurogentec (Kanaka Eurogentec, Seraing, Belgium). FRET melting experiments were run on Stratagene Mx3005P real-time PCR equipment in 96-well plates on the DNA sequences listed Table 1. Experiments were performed in 10 mM lithium cacodylate buffer (pH 7.2) and 10 mM KCl and 90 mM LiCl as previously described.[45,46] The DNA concentration was 0.2 μM. The stabilization (ΔT1/2) induced by compounds was calculated as the difference between the Tm of the nucleic acid alone and that measured with a ligand concentration of 1 μM. Data are presented as averages of three independent measurements, each conducted in duplicate (λexc = 492 nm, λem = 516 nm, T interval = 25–95 °C, ramp: 25 °C for 5 min, then 1 °C min^−1, measurements every 1 °C, 8× magnification of the fluorescence signal). The G4 selectivity of the ligands with respect to the duplex was evaluated by determining the Tm values in the presence of 0, 3 or 10 μM of the duplex competitor ds26.
(§2) In this assay, we performed thermal denaturation experiments by heating and recording the fluorescence of DNA oligonucleotides doubly labelled with fluorescein and TAMRA fluorophores (Fig. 3 and S7). Ligand binding to the G4 stabilises the structure, resulting in an increase in the half-dissociation temperature of the structure (ΔT1/2). As a first approximation, the higher the ΔT1/2 (ΔT1/2 higher), the higher the affinity of the ligand for the target.[45]
(§3) The fluorescently labeled oligonucleotides were dissolved at a concentration of 0.2 μM in 10 mM lithium cacodylate buffer (pH 7.2) with 10 mM KCl and 90 mM LiCl. […] E) Radar plot representation that summarizes the FRET-melting results (ΔT1/2 (°C)) for each ligand in the presence of HIVpro1-FT (green), HIVpro2-FT (grey), LTR4-FT (bleu), and Htel-FT (red). Data are the results of at least three independent experiments in which each data point was performed in duplicate.

Data set [5] deals with LTR4-FT (parallel DNA G4). The data set is described as follows: FRET melting assay, LTR4-FT. In kind it is binding, HIV-1. Particulars: ligand 1 μM, DNA 0.2 μM. The method, then:
as §1, §2, §3

For another data set, the system named is HIV-1. Particulars: at 1.56 μM.
The subject of data set [6] is Htel (DNA, G4) AGGGTTAGGGTTAGGGTTAGGG
The data set is described as follows: native ESI-MS. Particulars: 100 mM ammonium acetate (NH4+), no K+; apparent, site 1 of 2; 10 μM DNA, 20 μM ligand, 4 °C incubation.

The nature of data set [7]: Cell viability assay (CellTiter 96 AQueous One). It is filed as cell-based. Particulars: human, at 1.56 μM.

This is an account of results in publication PMC13334477 (RSC Medicinal Chemistry, 2026).

Where “and” joins values, the source holds several entries; their conditions need not be identical. Equal values may be shown once. Read-outs that look alike come from different tables or passages of the source.

`COc1ccc(-[n+]2c3ccc4cc(OC)ccc4c3cc3c4ccc(OC)cc4ccc32)cc1` [DBA3]: the Kd1 was 1071.92 µM in data set [1] (almost no complex detected); 36.88 µM in [2]; 13.62 µM in the data set with TG4T (DNA, G4) TGGGGT. In addition, the Kd in data set [3] (read-out: Kd1 G4T4G4) came to 36.9 µM; in [3] (read-out: Kd2 G4T4G4) it was 37 µM. Besides, the “ΔT1/2 HIVpro1” value in [4] (+10µM ds26) was 5.0±0.1 °C; in data set [4] (No ds26), 6.3±0.7 °C and 6.3 °C. Moreover, the “ΔT1/2 LTR4” value in data set [5] (+10µM ds26) was 10.2±0.3 °C; in data set [5] (No ds26), 10.6±0.7 °C.

In the case of `COC(=O)c1ccc(-[n+]2c3ccc4cc(OC)ccc4c3cc3c4ccc(OC)cc4ccc32)cc1` [DBA2], the Kd1 in data set [1] (almost no complex detected) worked out at 711.55 µM; in the data set with TG4T (DNA, G4) TGGGGT, 6.09 µM. In addition, the Kd in [3] (read-out: Kd1 G4T4G4) stood at 51.2 µM; in data set [3] (read-out: Kd2 G4T4G4) it was 33.6 µM. For the same compound, the “ΔT1/2 HIVpro1” value was 3.9±0.2 °C in [4] (+10µM ds26); 5.6±0.3 °C and 5.6 °C in data set [4] (No ds26). Further, the results for the “ΔT1/2 LTR4” value in [5] (+10µM ds26) and in data set [5] (No ds26) were 7.3±0.4 °C and 9.4±0.3 °C, respectively.

What is called viability is the share of living cells, or the viability signal relative to a control. In the case of `COc1ccc2c(ccc3c2cc2c4ccc(OC)cc4ccc2[n+]3-c2ccc([N+](=O)[O-])cc2)c1` [DBA4], the Kd1 is 165.13 µM in [1] (site 1 of 2); 5.42 µM with TG4T (DNA, G4) TGGGGT; 11.21 µM in data set [6]. In addition, in the data set with HIV-1, the “reduction of viral infectivity” value was “approximately 20%”. Further, the Kd in data set [3] (read-out: Kd1 G4T4G4) turned out to be 46.2 µM; in data set [3] (read-out: Kd2 G4T4G4), 26.6 µM. Moreover, the “ΔT1/2 HIVpro1” value in data set [4] (+10µM ds26) is 5.1±0.5 °C; in data set [4] (No ds26), 7.0±2.0 °C and 7 °C. Also, the “ΔT1/2 LTR4” value in data set [5] (+10µM ds26) was 10±0.7 °C; in [5] (No ds26), 11±0.5 °C and 11 °C. Besides, the viability at 24 h, 1.56 µM in [7] worked out at 100%.

With `c1ccc(-[n+]2c3ccc4ccccc4c3cc3c4ccccc4ccc32)cc1` [DBA5], the Kd1 in data set [1] (site 1 of 2) stood at 75.39 µM; in the data set on TG4T (DNA, G4) TGGGGT, 21.57 µM; in data set [6] it was 14.47 µM. Further, the “reduction of viral infectivity” value with HIV-1 is listed as ~40%. Besides, the Kd in data set [3] (read-out: Kd1 G4T4G4) came to 129 µM; in data set [3] (read-out: Kd2 G4T4G4) it was 33.4 µM. In addition, the “ΔT1/2 HIVpro1” value came out at 3.6±0.04 °C in data set [4] (+10µM ds26) and 5.0±0.03 °C in data set [4] (No ds26). Besides, in [5] (+10µM ds26), the “ΔT1/2 LTR4” value was 6.0±1.3 °C. The compound also came in with a viability at 24 h, 1.56 µM in data set [7] of 100%.

On to `COc1ccc2c(ccc3c2cc2c4ccc(OC)cc4ccc2[n+]3-c2ccccc2)c1` [DBA1], for which the Kd1 came to 4833.59 µM in [1] (almost no complex detected) and 14.69 µM in the data set on TG4T (DNA, G4) TGGGGT. The values for the Kd in data set [3] (read-out: Kd1 G4T4G4) and in data set [3] (read-out: Kd2 G4T4G4) were 47.1 µM and 38.6 µM, respectively. Further, the “ΔT1/2 HIVpro1” value in data set [4] (+10µM ds26) came to 4.4±0.7 °C; in [4] (No ds26), 6.9±0.04 °C. Further, the “ΔT1/2 LTR4” value is 10±0.5 °C in data set [5] (+10µM ds26) and 11±0.2 °C in data set [5] (No ds26).
